Assay results from US8637511B2, “Aminopyrimidines useful as kinase inhibitors” (Vertex Pharmaceuticals Incorporated, priority 2005, dated 2014).
Where two headings read alike, the source gives them in different places.

What was measured:
JAK3 = molecular target: T1, JAK3 (Homo sapiens, UniProt P52333); experiment: biochemical
T1 sequence (P52333 1-1124): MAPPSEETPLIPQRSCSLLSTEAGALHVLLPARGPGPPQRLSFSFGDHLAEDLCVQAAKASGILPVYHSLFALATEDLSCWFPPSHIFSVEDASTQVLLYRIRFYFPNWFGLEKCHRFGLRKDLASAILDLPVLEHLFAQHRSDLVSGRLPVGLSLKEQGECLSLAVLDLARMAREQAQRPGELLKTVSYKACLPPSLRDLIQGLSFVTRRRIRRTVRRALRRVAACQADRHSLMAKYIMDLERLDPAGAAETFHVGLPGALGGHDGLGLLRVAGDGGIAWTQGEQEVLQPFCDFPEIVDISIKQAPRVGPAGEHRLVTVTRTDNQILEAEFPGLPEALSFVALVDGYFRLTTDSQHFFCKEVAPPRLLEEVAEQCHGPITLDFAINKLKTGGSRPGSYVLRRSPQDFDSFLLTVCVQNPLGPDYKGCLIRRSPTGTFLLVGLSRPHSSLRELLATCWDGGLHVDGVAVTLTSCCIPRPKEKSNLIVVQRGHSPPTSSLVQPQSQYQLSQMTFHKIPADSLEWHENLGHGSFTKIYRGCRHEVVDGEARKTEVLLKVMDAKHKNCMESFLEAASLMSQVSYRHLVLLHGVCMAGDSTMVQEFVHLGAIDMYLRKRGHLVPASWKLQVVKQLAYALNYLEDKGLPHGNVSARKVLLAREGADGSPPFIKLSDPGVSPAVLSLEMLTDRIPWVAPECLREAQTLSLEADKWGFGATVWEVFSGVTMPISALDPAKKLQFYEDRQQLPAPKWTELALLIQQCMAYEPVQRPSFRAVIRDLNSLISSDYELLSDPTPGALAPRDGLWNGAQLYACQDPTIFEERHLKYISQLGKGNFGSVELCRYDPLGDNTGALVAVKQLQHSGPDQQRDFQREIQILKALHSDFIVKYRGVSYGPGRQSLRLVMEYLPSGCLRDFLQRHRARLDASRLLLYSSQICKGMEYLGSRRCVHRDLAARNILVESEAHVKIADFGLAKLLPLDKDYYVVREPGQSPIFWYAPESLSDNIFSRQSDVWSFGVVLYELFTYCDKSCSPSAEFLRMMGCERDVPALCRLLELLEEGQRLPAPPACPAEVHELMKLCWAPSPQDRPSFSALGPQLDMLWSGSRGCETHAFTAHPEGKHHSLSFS

Colo205 cells = experiment: Analysis of cell proliferation and viability; assay type: cell-based; settings: Homo sapiens, read-out: IC50 value
Experimental: Colo205 cells were seeded in 96 well plates and serially diluted compound was added to the wells in duplicate. Control groups included untreated cells, the compound diluent (0.1% DMSO alone) and culture medium without cells.
To measure proliferation, 3 h prior to the end of the experiment 0.5 μCi of 3H thymidine was added to each well. Cells were then harvested and the incorporated radioactivity counted on a Wallac microplate beta-counter. Cell viability was assessed using Promega CellTiter 96AQ to measure MTS conversion. Dose response curves were calculated using either Prism 3.0 (GraphPad) or SoftMax Pro 4.3.1 LS (Molecular Devices) software.

Aurora-2 (Aurora A) = molecular target: T2, Aurora-2 (Aurora A) (Homo sapiens, UniProt O14965); experiment: Aurora-2 (Aurora A) inhibition assay, coupled enzyme; assay type: biochemical; settings: read-out: Aurora A kinase Ki value
T2 sequence (O14965 1-403): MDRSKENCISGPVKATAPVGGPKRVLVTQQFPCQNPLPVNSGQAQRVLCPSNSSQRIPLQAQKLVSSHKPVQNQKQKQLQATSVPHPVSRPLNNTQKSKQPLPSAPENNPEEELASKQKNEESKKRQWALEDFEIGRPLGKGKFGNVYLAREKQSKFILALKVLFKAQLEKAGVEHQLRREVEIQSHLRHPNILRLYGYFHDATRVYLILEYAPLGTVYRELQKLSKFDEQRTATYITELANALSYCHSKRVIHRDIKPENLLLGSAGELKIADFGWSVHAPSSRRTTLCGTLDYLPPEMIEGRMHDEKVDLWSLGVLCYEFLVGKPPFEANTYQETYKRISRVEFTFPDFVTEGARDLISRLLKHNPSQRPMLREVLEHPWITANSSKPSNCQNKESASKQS
Experimental: Assays were carried out in a mixture of 100 mM Hepes (pH7.5), 10 mM MgCl2, 1 mM DTT, 25 mM NaCl, 2.5 mM phosphoenolpyruvate, 300 μM NADH, 30 μg/ml pyruvate kinase and 10 μg/ml lactate dehydrogenase. […] Assays were carried out at 30° C. and in the presence of 40 nM Aurora-2.
The plate was preincubated for 10 minutes at 30° C. and the reaction initiated by addition of 10 μl of Aurora-2. Initial reaction rates were determined with a Molecular Devices SpectraMax Plus plate reader over a 10 minute time course. IC50 and Ki data were calculated from non-linear regression analysis using the Prism software package (GraphPad Prism version 3.0cx for Macintosh, GraphPad Software, San Diego Calif., USA).

Aurora-1 (Aurora B) = Aurora-1 (Aurora B) (Homo sapiens, UniProt Q96GD4); experiment: Aurora-1 (Aurora B) inhibition assay (radiometric); assay type: biochemical; settings: read-out: Aurora B kinase Ki value
Chain of Aurora-1 (Aurora B) (Q96GD4 whole entry): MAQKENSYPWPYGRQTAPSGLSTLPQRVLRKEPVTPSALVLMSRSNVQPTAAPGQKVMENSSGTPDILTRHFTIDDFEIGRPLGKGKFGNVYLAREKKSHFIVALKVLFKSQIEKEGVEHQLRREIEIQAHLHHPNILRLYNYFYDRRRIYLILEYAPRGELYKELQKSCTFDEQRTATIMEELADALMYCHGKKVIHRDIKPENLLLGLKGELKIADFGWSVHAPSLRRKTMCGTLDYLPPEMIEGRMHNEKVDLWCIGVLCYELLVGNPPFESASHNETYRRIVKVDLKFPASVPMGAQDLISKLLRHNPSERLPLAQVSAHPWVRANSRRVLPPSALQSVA
Experimental: An assay buffer solution was prepared which consisted of 25 mM HEPES (pH 7.5), 10 mM MgCl2, 0.1% BSA and 10% glycerol. […] To 22 μL of the Aurora-B solution, in a 96-well plate, was added 2 μl of a compound stock solution in DMSO and the mixture allowed to equilibrate for 10 minutes at 25° C. The enzyme reaction was initiated by the addition of 16 μl stock [γ-^33P]-ATP solution (˜20 nCi/μL) prepared in assay buffer, to a final assay concentration of 800 μM. The reaction was stopped after 3 hours by the addition of 16 μL 500 mM phosphoric acid and the levels of ^33P incorporation into the peptide substrate were determined by the following method.
A phosphocellulose 96-well plate (Millipore, Cat no. MAPHNOB50) was pre-treated with 100 μL of a 100 mM phosphoric acid prior to the addition of the enzyme reaction mixture (40 μL). The solution was left to soak on to the phosphocellulose membrane for 30 minutes and the plate subsequently washed four times with 200 μL of a 100 mM phosphoric acid. […] Levels of non-enzyme catalyzed background radioactivity were determined by adding 16 μL of the 500 mM phosphoric acid to control wells, containing all assay components (which acts to denature the enzyme), prior to the addition of the [γ-^33P]-ATP solution. Levels of enzyme catalyzed. ^33P incorporation were calculated by subtracting mean background counts from those measured at each inhibitor concentration. […] Ki values were calculated from initial rate data by non-linear regression using the Prism software package (Prism 3.0, Graphpad Software, San Diego, Calif.).

[1] = COLO 205, Colo205 cells, incubated for 72 hours
[2] = COLO 205, Colo205 cells, incubated for 96 hours

Row | SMILES | Ki (JAK3) [nM] | IC50 (Colo205 cells; [1]) [nM] | IC50 (Colo205 cells; [2]) [nM] | IC50 (Colo205 cells; COLO 205, 72 h) [nM] | IC50 (Colo205 cells; COLO 205, 96 h) [nM] | Ki (Aurora-2 (Aurora A)) [nM] | Ki (Aurora-1 (Aurora B)) [nM]
1 | CCC(=O)Nc1ccc(Sc2nc(Nc3cc(C)n[nH]3)cc(N3CC(O)(C4CC4)C3)n2)cc1 [Compound 85] | 10 to 500 | ≤ 30 | ≤ 50 |  |  |  | 
2 | CCC(=O)Nc1ccc(Sc2nc(Nc3cc(C)n[nH]3)cc(N3CC(O)(C4CCCC4)C3)n2)cc1 [Compound 97] | 10 to 500 |  |  | ≤ 30 | > 1000 |  | 
3 | CCC(=O)Nc1ccc(Sc2nc(Nc3cc(C)n[nH]3)cc(N3CC(O)(C(C)C)C3)n2)cc1 [Compound 99] | ≤ 10 |  | ≤ 50 |  |  |  | 
4 | CCC(=O)Nc1ccc(Sc2nc(Nc3cc(C)n[nH]3)cc(N3CC(O)(C(C)CC)C3)n2)cc1 (stereo not drawn) [Compound 100] | 10 to 500 |  | ≤ 50 |  |  |  | 
5 | CCC(=O)Nc1ccc(Sc2nc(Nc3cc(C)n[nH]3)cc(N3CC(O)(C4CCCCC4)C3)n2)cc1 [Compound 101] |  |  | ≤ 50 |  |  | ≤ 1 | ≤ 10
6 | CCC(=O)Nc1ccc(Sc2nc(Nc3cc(C4CC4)[nH]n3)cc(N3CC(O)(C4CC4)C3)n2)cc1 [Compound 102] | ≤ 10 |  |  |  | ≤ 50 |  | 
7 | Cc1cc(Nc2cc(N3CC(O)(C4CC4)C3)nc(Sc3ccc(NC(=O)C4CC4)cc3)n2)n[nH]1 [Compound 103] | 10 to 500 |  |  | 30 to 200 | ≤ 50 |  | 
8 | COC(=O)c1ccc(Sc2nc(Nc3cc(C4CC4)[nH]n3)cc(N3CC(O)(C4CC4)C3)n2)cc1 [Compound 106] |  |  | 50 to 1000 |  |  | ≤ 1 | ≤ 10
9 | CC(=O)OC1(C2CC2)CN(c2cc(Nc3cc(C)n[nH]3)nc(Sc3ccc(NC(=O)C4CC4)cc3)n2)C1 [Compound 107] |  |  | ≤ 50 |  |  | ≤ 1 | 10 to 50
10 | CCCCOC1(C2CC2)CN(c2cc(Nc3cc(C)n[nH]3)nc(Sc3ccc(NC(=O)C4CC4)cc3)n2)C1 [Compound 111] |  |  | ≤ 50 |  |  | ≤ 1 | ≤ 10
11 | COC1(C2CC2)CN(c2cc(Nc3cc(C)[nH]n3)nc(Sc3ccc(NC(=O)C4CC4)cc3)n2)C1 [Compound 118] |  | ≤ 30 |  |  |  | ≤ 1 | ≤ 10
12 | Cc1cc(Nc2cc(N3CC(C)(C#N)C3)nc(Sc3ccc(NC(=O)c4ccccc4C(F)(F)F)cc3)n2)[nH]n1 [Compound 122] |  | 30 to 200 |  |  |  | ≤ 1 | ≤ 10
13 | Cc1cc(Nc2cc(N3CC4(CCCO4)C3)nc(Sc3ccc(NC(=O)C4CC4)cc3)n2)[nH]n1 [Compound 123] |  | 30 to 200 |  |  |  | 1 to 5 | ≤ 10
14 | CCN(C)C(=O)c1ccc(Sc2nc(Nc3cc(C)[nH]n3)cc(N3CC(O)(C4CC4)C3)n2)cc1 [Compound 125] |  | > 200 |  |  |  | 1 to 5 | 50 to 2000
